Here are results for eleven compounds from ChEMBL document CHEMBL1127121, “Benzofuran based angiotensin II antagonists related to GR117289: Part III; GR138950, a triflamide with high oral bioavailability” (Bioorg Med Chem Lett, 1993).

The nature of series [1]: Bioavailability in rat. In kind it is ADME, organism-based. Conditions: in vivo.
The nature of series [2]: The compound was evaluated for plasma clearance in rat. In kind it is ADME, organism-based. Conditions: read-out: Clp.
Series [3] in a line: The compound was evaluated for volume of distribution in rat. In kind it is ADME, organism-based. Conditions: in vivo.
Series [4] can be described thus: The compound was evaluated for plasma half life period in rat. In kind it is ADME, organism-based.
Series [5] addresses T1, Type-1 angiotensin II receptor (Oryctolagus cuniculus) (UniProt P34976).
T1 sequence (whole entry): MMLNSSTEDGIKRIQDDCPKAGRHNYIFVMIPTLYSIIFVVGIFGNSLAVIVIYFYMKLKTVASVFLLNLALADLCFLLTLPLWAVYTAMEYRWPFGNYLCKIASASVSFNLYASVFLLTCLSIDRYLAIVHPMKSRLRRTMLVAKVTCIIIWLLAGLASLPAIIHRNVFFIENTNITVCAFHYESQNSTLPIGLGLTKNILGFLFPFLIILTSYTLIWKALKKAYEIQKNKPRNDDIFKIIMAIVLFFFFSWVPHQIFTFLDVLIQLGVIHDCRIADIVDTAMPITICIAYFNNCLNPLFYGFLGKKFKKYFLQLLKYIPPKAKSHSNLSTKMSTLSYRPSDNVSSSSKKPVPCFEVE
The series can be described thus: Affinity for Angiotensin II receptor, type 1 by measuring its ability to antagonise the contractile effect of AngII in rabbit isolated thoracic aorta. In kind it is functional, tissue-based.

In the case of `CCc1nc(C2CC2)c(C(N)=O)n1Cc1ccc2oc(-c3ccccc3NS(=O)(=O)C(F)(F)F)c(Br)c2c1` [SAPRISARTAN], in series [1], the bioavailability worked out at 79%. Further, the clearance in series [2] was 8.9 mL/min/kg. The compound further had a Vd in series [3] of 2.4 L/kg. In addition, in series [4], the half-life was 3.2 h. The compound further showed a pKB in series [5] of 9.
On to `CCc1nc(C)c(C(=O)NCC(F)(F)F)n1Cc1ccc2oc(-c3ccccc3NS(=O)(=O)C(F)(F)F)c(Br)c2c1`, for which the pKB in series [5] is 9.2.
On the same count and under the same terms, the same measure for `CCNC(=O)c1c(C)nc(CC)n1Cc1ccc2oc(-c3ccccc3NS(=O)(=O)C(F)(F)F)c(Br)c2c1`: 9.5.
Consider `CCc1nc(C)c(C(=O)NC)n1Cc1ccc2oc(-c3ccccc3NS(=O)(=O)C(F)(F)F)c(Br)c2c1`, for which, in series [1], the bioavailability turned out to be 95%. In series [2], the clearance turned out to be 42 mL/min/kg. Further, in series [3], the Vd is 4.3 L/kg. The compound also gave a half-life in series [4] of 1.2 h. Further, the negative-log KB (pKB) in series [5] was found to be 9.
In the case of `CCCCc1nc(Cl)c(C(=O)O)n1Cc1ccc2oc(-c3ccccc3-c3nn[nH]n3)c(Br)c2c1` [ZOLASARTAN], the bioavailability in series [1] worked out at 3%. For the same compound, the clearance in series [2] was determined as 0.8 mL/min/kg. In series [3], this compound yielded a Vd of 0.5 L/kg. The half-life in series [4] is 8 h.
In series [5], `CCc1nc(C2CC2)c(C(=O)NC)n1Cc1ccc2oc(-c3ccccc3NS(=O)(=O)C(F)(F)F)c(Br)c2c1` showed a pKB of 9.7.
The same measure, in the same setting: the figure for `CCc1nc(C)c(C(N)=O)n1Cc1ccc2oc(-c3ccccc3NS(=O)(=O)C(F)(F)F)c(Br)c2c1` is 9; for `CCc1nc(C(C)C)c(C(=O)NC)n1Cc1ccc2oc(-c3ccccc3NS(=O)(=O)C(F)(F)F)c(Br)c2c1` it is 8.1.
On the same count and under the same terms, the same measure for `CCc1nc(CC(C)C)c(C(=O)NC)n1Cc1ccc2oc(-c3ccccc3NS(=O)(=O)C(F)(F)F)c(Br)c2c1`: less than 8; for `CCc1nc(C)c(C(=O)N(C)C)n1Cc1ccc2oc(-c3ccccc3NS(=O)(=O)C(F)(F)F)c(Br)c2c1`: 9.1.
The same measure, in the same setting: the figure for `CCc1nc(CC)n(Cc2ccc3oc(-c4ccccc4NS(=O)(=O)C(F)(F)F)c(Br)c3c2)c1C(=O)NC` is 9.
